Reference: patent publication US20160022681A1, “METHODS OF INCREASING LYMPHATIC TRANSPORT” (UNIVERSITY OF ROCHESTER, priority 2012, published 2016)
“Also recorded” adds a separate entry of the source. Bridge positions count the residues as written; N and C are the ends. Ends that are not written are not given here.

Columns and labels:
lymphatic vessels [1] = conditions: ex vivo studies; cited from earlier work
lymphatic vessels [2] = assay: near-infrared (NIR) imaging of indocyanine green (ICG) transport after footpad injection; format: in vivo; conditions: mouse, sildenafil 12 mg/kg intraperitoneally, images taken 20 minutes after treatment, versus saline control
Method: To determine if phosphodiesterase (PDE) inhibitors were capable of increasing lymphatic transport, near-infrared (NIR) imaging of indocyanine green ICG) transport was used. ICG (20 μl of 0.1 mg ICG/ml water) was injected into the footpad Of the animal Where it is taken up by the lymphatic system. The extremity was illuminated with near infrared light (generated with a tungsten halogen source) resulting in near infrared fluorescence at a longer wavelength that was recorded with a near-infrared sensitive camera (Prosilica GC1380; Allied Vision Technologies; Stadtroda, Germany). Excitation and emission wavelengths were separated using Semrock filters (IDEX; Lake Forest, Ill.) from the ICG-A filter set. To determine if PDE inhibitors Were capable of increasing lymphatic transport, sildenafil (12 mg/kg), a PDE5 antagonist, was injected intraperitoneally with ICG into the footpad of a mouse. Saline was used a control.

Compound	lymphatic pulsing and/or flow (lymphatic vessels [1])	ICG uptake into lymphatic vessels / lymphatic system (lymphatic vessels [2])
O=S(=O)(O)c1cc(O)ccc1O [doxium]	increase lymphatic pulsing and/or flow	–
endothelin-1 (CSCSSLMDKECVYFCHLDIIW; disulfide 1-15, 3-11; ends not checked; UniProt P05305 53-73, looked up)	increase lymphatic pulsing and/or flow	–
CCCc1nn(C)c2c(=O)[nH]c(-c3cc(S(=O)(=O)N4CCN(C)CC4)ccc3OCC)nc12 [sildenafil]	–	increases indocyanine green (ICG) uptake into lymphatic vessels; also recorded: increased ICG uptake into the lymphatic system
CCCCC[C@H](O)/C=C/[C@@H]1[C@@H](C/C=C\CCCC(=O)O)[C@H]2CO[C@@H]1C2 [U46619]	increase lymphatic pulsing and/or flow	–
hyaluronidase	increase lymphatic pulsing and/or flow	–
substance P (RPKPQQFFGLM-NH2; ends and bridges not checked; UniProt P20366 58-68, looked up)	increase lymphatic pulsing and/or flow	–
NC[C@H](O)c1ccc(O)c(O)c1 [norepinephrine]	increase lymphatic pulsing and/or flow	–
